For 52 compounds, IC50 results are on record in US12152038B2, “Vasopressin receptor antagonists and products and methods related thereto” (Neumora Therapeutics, Inc., priority 2017, dated 2024).

Where a name gives a salt, the structure may show the parent alone.

The target of the test is T1, human Arginine Vasopressin Receptor 1a (AVPR1a) (Homo sapiens, UniProt P37288).
T1 construct: expressed in transfected cells; host or cells: CHO (CHO-AVPR1a, kept under G418 selection)
Nature of the test: Vasopressin V1a receptor antagonist assay (FLIPR calcium, CHO-AVPR1a cells). The test is classed as cell-based. As for the experimental part: The purpose of this assay was to determine the inhibitory effect of synthesized compounds on the Vasopressin V1a receptor. The assay was performed in Chinese Hamster Ovary (CHO) cells expressing the human Arginine Vasopressin Receptor 1a (AVPR1a). Arginine Vasopressin (AVP) evokes an increase in intracellular calcium in CHO-AVPR1a cells which is measured in a fluorescence assay on the FLIPR^TETRA using calcium sensitive dyes. Test compounds were assessed for their ability to affect the magnitude of the response to AVP, with antagonists showing a concentration-dependent reduction in the AVP-mediated fluorescence. Compounds were tested in duplicate in a 10-point, 1:3 dilution series starting at a nominal concentration of 3 μM in the assay.
CHO-AVPR1a cells were maintained in routine culture in T175 Flasks at 37° C., 5% CO2. The growth medium consists of Ham's F12 media supplemented with 10% v/v fetal bovine serum, 1× non-essential amino acids, and 0.4 mg/ml Geneticin G418.
On day one, cells were harvested from T175 flasks when they are 80-90% confluent by first washing the cell monolayer with PBS and then dissociated using trypsin 0.05%/EDTA (3 mL for a T175 Flask). The flasks were incubated at room temperature until the cells detached. To the cell suspension, 10 ml of growth media was added and the cell density determined using the Vi-Cell automated cell counter. The cells were spun at 1000 rpm for 3 minutes, then the supernatant was carefully removed and discarded. The cell pellet was re-suspended at 6.0e^5 cells/ml in growth media. 25 μL of cells in growth media was dispensed into each well (15,000 cells per well) of a poly-D-lysine coated black, clear bottomed, 384-well plate. The plates were incubated at 37° C., 5% CO2 overnight.
At the start of each assay day, the potency of AVP was assessed and an EC80 concentration determined for subsequent compound profiling. Assays were performed using a two-step addition protocol on the FLIPR^TETRA; first addition of 5 μl of control or test compound at 10× final in assay buffer with 15 min incubation at 37° C., 5% CO2 followed by 10 μl of AVP at 6× final concentration in assay buffer. Changes in fluorescence were monitored for 3 min after both additions on the FLIPR^TETRA using 470-495 nm excitation and 515-575 nm emission wavelengths. The assay buffer consisted of HBSS (+Ca/+Mg) supplemented with 20 mM HEPES, and for the preparation of the AVP agonist only, 0.1% w/v bovine serum albumin. The assay was initiated by the removal of growth media from the cells and replacement with 45 μl of Calcium-6 dye (Molecular Devices) prepared at 1× in assay buffer. Cells were loaded with dye for 60-90 min at 37° C., 5% CO2 before initiation of the FLIPR^TETRA protocol. […] For compound profiling, test compounds were first serially diluted in DMSO (10-point curve, 1:3 dilutions) then diluted 33.3-fold in assay buffer prior to addition to the dye loaded cells on the FLIPR^TETRA. At the end of the incubation period, 10 μl of AVP in assay buffer containing 0.1% BSA was added at the previously determined EC80 concentration.
In-plate controls for the assay included balovaptan and PF-184563 concentration-response curves as reference V1a antagonists, and an AVP concentration-response curve to confirm the reproducibility of the EC80 used for the compound challenge.

T1 sequence (P37288 whole entry): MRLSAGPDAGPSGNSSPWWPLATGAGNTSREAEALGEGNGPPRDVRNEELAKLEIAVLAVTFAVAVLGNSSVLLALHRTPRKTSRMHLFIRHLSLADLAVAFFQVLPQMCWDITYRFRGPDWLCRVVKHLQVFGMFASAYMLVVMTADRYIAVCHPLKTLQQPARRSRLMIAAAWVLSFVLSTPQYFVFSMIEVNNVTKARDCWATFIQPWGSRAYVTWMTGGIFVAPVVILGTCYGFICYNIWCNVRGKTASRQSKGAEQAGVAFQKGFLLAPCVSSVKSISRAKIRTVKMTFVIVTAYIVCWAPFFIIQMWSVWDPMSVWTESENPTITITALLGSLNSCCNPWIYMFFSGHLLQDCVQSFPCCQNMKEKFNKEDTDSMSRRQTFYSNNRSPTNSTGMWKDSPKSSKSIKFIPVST

The term IC50 denotes the concentration needed to halve the response being measured. For the compound `COc1ccnc(N2CC3(CN(C(=O)N4CCOc5cc(Cl)ccc54)C3)C2)n1` [1-47], the IC50 was less than 100 nM.
As for `CC1COc2cc(F)ccc2N1C(=O)N1CC2(C1)CN(c1cccnn1)C2` (stereo not shown) [1-62], the figure is less than 100 nM.
Take `CCC1COc2cc(Cl)ccc2N1C(=O)N1CC2(C1)CN(c1ccc(F)cn1)C2` (single isomer, unassigned) [1-55-A]: the IC50 lay within 500 to 1000 nM.
As for `CC1COc2cc(F)ccc2N1C(=O)N1CC2(C1)CN(c1noc3ccccc13)C2` (single isomer, unassigned) [4-3-A], the figure is 100 to 500 nM.
Regarding `O=C(N1CC2(C1)CN(c1nccnc1F)C2)N1CCOc2cc(Cl)ccc21` [1-33], the IC50 was less than 100 nM.
As for `Cc1ccnc(N2CC3(CN(C(=O)N4c5ccc(Cl)cc5OCC4C)C3)C2)n1` (single isomer, unassigned) [20-12-A], the figure is no less than 1000 nM; as for `COc1ncccc1N1CC2(CN(C(=O)N3CCOc4cc(Cl)ccc43)C2)C1` [1-8], 100 to 500 nM; as for `CC(c1cccnc1)N1CC2(CN(C(=O)N3CCOc4cc(Cl)ccc43)C2)C1` (stereo not shown) [2-4], no less than 1000 nM.
As for `O=C(N1CC2(C1)CN(c1ncccc1F)C2)N1CCC(O)c2cc(Cl)ccc21` (single isomer, unassigned) [13-4-A], the figure is less than 100 nM; as for `CC1COc2cc(F)ccc2N1C(=O)N1CC2(C1)CN(c1cccnn1)C2` (single isomer, unassigned) [1-62-B], less than 100 nM; as for `COc1ccnc(N2CC3(CN(C(=O)N4c5ccc(Cl)cc5OCC4C)C3)C2)n1` (single isomer, unassigned) [20-9-A], no less than 1000 nM.
As for `Cc1cc(F)cnc1N1CC2(CN(C(=O)N3CCOc4cc(Cl)ccc43)C2)C1` [1-52], the figure is less than 100 nM; as for `N#Cc1ccc(N2CC3(CN(C(=O)N4CCOc5cc(Cl)ccc54)C3)C2)nc1` [1-16], 100 to 500 nM.
With `Cc1cnc(N2CC3(CN(C(=O)N4CCOc5cc(Cl)ccc54)C3)C2)nc1` [1-37], the half-maximal inhibitory concentration (IC50) lay in the range of 100 to 500 nM.
On to `O=C(N1CC2(C1)CN(c1ncc(F)cc1F)C2)N1CCOc2cc(Cl)ccc21` [1-50], for which the IC50 was less than 100 nM.
Turning to `CC1COc2cc(F)ccc2N1C(=O)N1CC2(C1)CN(c1cccnn1)C2` (single isomer, unassigned) [1-62-A], the concentration for half-maximal inhibition (IC50) is no less than 1000 nM.
As for `Cn1ccc(N2CC3(CN(C(=O)N4CCOc5cc(Cl)ccc54)C3)C2)n1` [1-10], the figure is 100 to 500 nM; as for `CC1COc2cc(F)ccc2N1C(=O)N1CC2(C1)CN(c1cc(C#N)ccn1)C2` (single isomer, unassigned) [20-3-A], no less than 1000 nM.
In the case of `O=C(N1CC2(C1)CN(c1cncc(F)c1)C2)N1CCOc2cc(Cl)ccc21` [1-7], the IC50 is 100 to 500 nM.
As for `Cc1cnc(N2CC3(CN(C(=O)N4c5ccc(Cl)cc5OCC4C)C3)C2)cn1` (single isomer, unassigned) [20-5-A], the figure is less than 100 nM; as for `CC1COc2cc(Cl)ccc2N1C(=O)N1CC2(C1)CN(c1nccc(C#N)n1)C2` (single isomer, unassigned) [20-16-B], less than 100 nM.
`O=C(N1CC2(C1)CN(c1ccc(OC(F)F)cn1)C2)N1CCOc2cc(Cl)ccc21` [1-12]: the IC50 was no less than 1000 nM.
As for `O=C(N1CC2(CN(Cc3ccncc3)C2)C1)N1CCOc2cc(Cl)ccc21` [2-1, (7-chloro-2,3-dihydro-4H-benzo[b][1,4]oxazin-4-yl)(6-(pyridin-4-ylmethyl)-2,6-diazaspiro[3.3]heptan-2-yl)methanone], the figure is no less than 1000 nM.
As for `COc1ccc2c(c1)OCC(C)N2C(=O)N1CC2(C1)CN(c1ccc(F)cn1)C2` (stereo not shown) [1-59], the figure is less than 100 nM; as for `Cn1ccc2ncc(N3CC4(CN(C(=O)N5CCOc6cc(Cl)ccc65)C4)C3)cc21` [1-41], 100 to 500 nM.
As for `CC1COc2cc(Cl)ccc2N1C(=O)N1CC2(C1)CN(c1nccc(C#N)n1)C2` (single isomer, unassigned) [20-16-A], the IC50 is no less than 1000 nM.
For `O=C(N1CC2(C1)CN(c1ccn3ccnc3c1)C2)N1CCOc2cc(Cl)ccc21` [5-1, (7-chloro-2,3-dihydro-4H-benzo[b][1,4]oxazin-4-yl)(6-(imidazo[1,2-a]pyridin-7-yl)-2,6-diazaspiro[3.3]heptan-2-yl)methanone formate], the IC50 was in the range of 100 to 500 nM.
As for `Cc1nc(N2CC3(CN(C(=O)N4CCOc5cc(Cl)ccc54)C3)C2)no1` [7-1, (7-chloro-2,3-dihydro-4H-benzo[b][1,4]oxazin-4-yl)(6-(5-methyl-1,2,4-oxadiazol-3-yl)-2,6-diazaspiro[3.3]heptan-2-yl)methanone], the figure is 100 to 500 nM; as for `CC1COc2cc(Cl)ccc2N1C(=O)N1CC2(C1)CN(c1ncccn1)C2` (single isomer, unassigned) [1-83-A], 100 to 500 nM.
As for `O=C(N1CC2(C1)CN(c1ccc(F)cn1)C2)N1CCS(=O)(=O)c2cc(Cl)ccc21` [8-17], the figure is 100 to 500 nM; as for `Cc1ccnc(N2CC3(CN(C(=O)N4c5ccc(F)cc5OCC4C)C3)C2)c1` (single isomer, unassigned) [20-4-A], no less than 1000 nM.
As for `COc1ccc(N2CC3(CN(C(=O)N4CCOc5cc(Cl)ccc54)C3)C2)nn1` [1-27], the figure is 100 to 500 nM; as for `CC1COc2cc(Cl)ccc2N1C(=O)N1CC2(C1)CN(c1cnccn1)C2` (single isomer, unassigned) [1-58-A], no less than 1000 nM; as for `Cc1cnnc(N2CC3(CN(C(=O)N4CCOc5cc(Cl)ccc54)C3)C2)c1` [3-1, (7-chloro-2,3-dihydro-4H-benzo[b][1,4]oxazin-4-yl)(6-(5-methylpyridazin-3-yl)-2,6-diazaspiro[3.3]heptan-2-yl)methanone], less than 100 nM.
Regarding `O=C(N1CC2(CN(Cc3ccc(F)cn3)C2)C1)N1CCOc2cc(Cl)ccc21` [2-6], the IC50 was no less than 1000 nM.
As for `CN1Cc2cnc(N3CC4(CN(C(=O)N5CCOc6cc(Cl)ccc65)C4)C3)nc2C1` [1-28], the 50% inhibitory concentration (IC50) is no less than 1000 nM.
As for `Cc1ccnc(N2CC3(CN(C(=O)N4c5ccc(F)cc5OCC4C)C3)C2)c1` (stereo not shown) [20-4], the figure is less than 100 nM.
For the compound `O=C(N1CC2(CN(Cc3cccnc3)C2)C1)N1CCOc2cc(Cl)ccc21` [2-3], the IC50 was no less than 1000 nM.
As for `O=C(N1CC2(C1)CN(c1ccc(F)cn1)C2)N1CCC(O)c2c1ccc(Cl)c2F` (single isomer, unassigned) [13-5-A], the figure is less than 100 nM; as for `COc1cccnc1N1CC2(CN(C(=O)N3CCOc4cc(Cl)ccc43)C2)C1` [1-6], less than 100 nM.
As for `O=C(N1CC2(C1)CN(c1nccn3cncc13)C2)N1CCOc2cc(Cl)ccc21` [1-44], the figure is less than 100 nM; as for `O=C(N1CC2(C1)CN(c1ccc(F)cn1)C2)N1CCOc2ccncc21` [8-6], no less than 1000 nM; as for `Cc1ccc(N2CC3(CN(C(=O)N4CCOc5cc(Cl)ccc54)C3)C2)nn1` [1-26], 100 to 500 nM.
Turning to `CC1COc2cc(Cl)ccc2N1C(=O)N1CC2(C1)CN(c1cnccn1)C2` (stereo not shown) [1-58], the IC50 was less than 100 nM.
As for `Cn1ccnc1N1CC2(CN(C(=O)N3CCOc4cc(Cl)ccc43)C2)C1` [1-54], the figure is 100 to 500 nM; as for `COc1cccc(N2CC3(CN(C(=O)N4CCOc5cc(Cl)ccc54)C3)C2)n1` [1-2], less than 100 nM; as for `Cc1ccnc(N2CC3(CN(C(=O)N4c5ccc(Cl)cc5OCC4C)C3)C2)c1` (single isomer, unassigned) [20-11-B], less than 100 nM.
As for `CC1CN(C(=O)N2CC3(C2)CN(c2ccc(F)cn2)C3)c2ccc(Cl)cc2O1` (single isomer, unassigned) [9-3-B], the figure is less than 100 nM.
As for `Cc1ncccc1N1CC2(CN(C(=O)N3CCOc4cc(Cl)ccc43)C2)C1` [1-9], the figure is 500 to 1000 nM; as for `O=C(N1CC2(C1)CN(c1ccc(C(F)(F)F)cn1)C2)N1CCOc2cc(Cl)ccc21` [1-31], 100 to 500 nM; as for `CC1CN(C(=O)N2CC3(C2)CN(c2ccc(F)cn2)C3)c2ccc(F)cc2O1` (single isomer, unassigned) [9-4-A], 100 to 500 nM.
Take `O=C(N1CC2(C1)CN(c1ccnc(OC(F)F)c1)C2)N1CCOc2cc(Cl)ccc21` [1-35]: the 50% inhibitory concentration (IC50) is no less than 1000 nM.
